In assay [1] the target is T1, GKRP (Glucokinase Regulatory Protein) with human His-hepatic GK (Homo sapiens, UniProt Q14397).
T1 sequence (Q14397 1-625): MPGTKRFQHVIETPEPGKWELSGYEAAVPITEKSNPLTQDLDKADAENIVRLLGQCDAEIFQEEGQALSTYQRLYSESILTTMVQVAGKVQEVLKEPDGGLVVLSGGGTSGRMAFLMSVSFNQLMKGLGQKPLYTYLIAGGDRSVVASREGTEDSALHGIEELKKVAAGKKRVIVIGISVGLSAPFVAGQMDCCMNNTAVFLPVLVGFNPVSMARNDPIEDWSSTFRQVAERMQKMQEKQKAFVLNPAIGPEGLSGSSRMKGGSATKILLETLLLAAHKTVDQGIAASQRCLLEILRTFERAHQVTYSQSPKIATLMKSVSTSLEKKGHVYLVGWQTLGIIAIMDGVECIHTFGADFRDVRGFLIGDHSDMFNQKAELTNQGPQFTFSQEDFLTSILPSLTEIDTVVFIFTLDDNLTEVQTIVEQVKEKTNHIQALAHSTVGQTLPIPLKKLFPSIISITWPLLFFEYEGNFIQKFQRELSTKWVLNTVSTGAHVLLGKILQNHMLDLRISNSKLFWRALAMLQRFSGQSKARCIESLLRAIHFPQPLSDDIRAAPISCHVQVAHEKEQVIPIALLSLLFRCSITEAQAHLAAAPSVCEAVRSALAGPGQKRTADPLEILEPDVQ
The assay is described as follows: GKRP NADPH Coupled Assay. As to conditions: GK-GKRP EC50 (NADPH-coupled), indirect measure of glucose-6-phosphate, fluorescence; 1 μM GKRP (10×), 20 nM GK (5×). Format: biochemical. As to the method:
This assay is used to directly measure the formation of ^13C-glucose-6-phosphate from ^13C-glucose by liquid chromatography-mass spectrometry (LC MS/MS). Begin by preparing the following solutions: Compound Buffer (CB): 50 mM Tris, pH 7.5/4 mM MgCl2/6% DMSO/fresh 10 mM DTT from 1M frozen stock. Enzyme Buffer (EB): 50 mM Tris, pH 7.5/4 mM MgCl2/6% DMSO/fresh 0.1% BSA/fresh 0.01% Brij-35 (10% BSA and 1% Brij-35 stock). GK (Glucokinase) Working Stock (5×): Dilute human His-hepatic GK to 30 nM in EB buffer. […] After 30 minutes add 10 μl of GK Working Stock (5×). Re-seal the plate and incubate for another 30 minutes at room temperature while mixing. After the second 30 minutes, stop the reaction by the addition of 50 μl of 100% acetonitrile, seal, and mix for 5-10 minutes. Run 10 μl of this sample through the LC MS/MS (API 3200, Applied Biosystems Inc., Carlsbad, Calif.).
This assay is used as an indirect measure of glucose-6-phosphate (G6P) formed from glucose due to the enzymatic activity of glucokinase. Assay format is the same as for GKRP LC MS/MS Biochemical Assay with the following exceptions. GK Working Stock (5×): Dilute human His-hepatic GK to 20 nM in EB buffer. Stop & Detection Reagent (2×): Dilute β-nicotinamide adenine dinucleotide phosphate sodium salt (β-NADP) (Aldrich-Sigma, St. Louis, Mo.) to 2 mM from 100 mM stock (stock in 10 mM Tris, pH 9.2) and dilute glucose-6-phosphate dehydrogenase (Aldrich-Sigma, St. Louis, Mo.) to 0.04 Unit/μl from 10 Unit/μl (stock in 10 mM Tris pH 7.5/0.05% Brij-35) in 0.2 M Tris, pH 9.2/8% DMSO. After the initial 30 minute incubation add 10 μl of 20 nM GK diluted in EB (5×). Re-seal the plate and incubate for another 1 hour at room temperature while mixing. After 1 hour remove the seal and add 50 μl of Stop & Detection Reagent and incubate for 5 minutes at room temperature while mixing.

Assay [2] deals with T2, interaction between glucokinase (GK) and glucokinase regulatory protein (GKRP) (Homo sapiens, UniProt Q14397).
T2 sequence (Q14397 1-625): T1 sequence (Q14397 1-625)
The assay is described as follows: biochemical. Format: binding. Summed up: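 Measures direct GK–GKRP binding in 20 mM Tris pH 7.5 containing 1 μM sorbitol-6-phosphate, 0.05% BSA and 1 mM DTT. Compound and avi-tagged GKRP sit 20 min at room temperature before GK-fluorescein addition (6 nM in the added buffer); read after 2 h dark incubation at room temperature.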

In assay [3] the target is T1, GKRP (Glucokinase Regulatory Protein) with human His-hepatic GK. The assay is described as follows: biochemical. Summed up:
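Product formation, 13C-glucose-6-phosphate from 13C-glucose, was measured directly by LC MS/MS after acetonitrile quench. The GK reaction ran 30 min at room temperature in Tris pH 7.5 buffer with 4 mM MgCl2 and 6% DMSO. The 5× enzyme stock was 30 nM His-tagged human hepatic glucokinase.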

Where [4] appears, read: avi-tagged GKRP, GK-fluorescein, AlphaScreen beads, read-out: GK-GKRP IC50 (Binding).
Where [5] appears, read: 13C-glucose-6-phosphate formation, 280 nM GKRP (10×), 30 nM GK (5×), read-out: GK-GKRP EC50 (LC MS/MS-2).

Read-outs that look alike come from different tables or passages of the source.

Regarding `O=S(=O)(c1cccs1)N1CCN(c2ccc(C(O)(C(F)(F)F)C(F)(F)F)cc2)C[C@H]1C1CC1` [Example 14, 2-(4-((3R)-3-cyclopropyl-4-(2-thiophenylsulfonyl)-1-piperazinyl)phenyl)-1,1,1,3,3,3-hexafluoro-2-propanol], the EC50 in assay [1] is 5000 nM. The same measure, in the same setting: for `O=S(=O)(c1cccs1)N1CCN(c2ccc(C(O)(C(F)(F)F)C(F)(F)F)cc2)C(Cc2cccc(O)c2)C1` (racemic) [Example 176, 3-((1-(4-(1,1,1,3,3,3-hexafluoro-2-hydroxypropan-2-yl)phenyl)-4-(thiophen-2-ylsulfonyl)piperazin-2-yl)methyl)phenol] the value was 1810 nM; for `C[C@H]1COCCN1CC1CN(S(=O)(=O)c2cccs2)CCN1c1ccc(C(C)(O)C(F)(F)F)cc1` (single isomer, unassigned) [Example 45 Peak #3], 15100 nM; for `CC(O)(c1ccc(N2CCN(S(=O)(=O)c3cccs3)CC2CC2CCOCC2)cc1)C(F)(F)F` (single isomer, unassigned) [Example 37 Peak #3, 1,1,1-trifluoro-2-(4-(2-(tetrahydro-2H-pyran-4-ylmethyl)-4-(2-thiophenylsulfonyl)-1-piperazinyl)phenyl)-2-propanol], 13000 nM. Still for that read-out and setting: for `CC(O)(c1ccc(N2CCN(S(=O)(=O)c3cccs3)CC2CN2CC[C@@H](O)C2)cc1)C(F)(F)F` (mixture of isomers) [Example 56, (3R)-1-((4-(2-thiophenylsulfonyl)-1-(4-(2,2,2-trifluoro-1-hydroxy-1-methylethyl)phenyl)-2-piperazinyl)methyl)-3-pyrrolidinol] the value was 3500 nM.

As to `CC(O)(c1ccc(N2CCN(S(=O)(=O)c3cccs3)C[C@@H]2CN2CCOC[C@@H]2CO)cc1)C(F)(F)F` (single isomer, unassigned) [Example 111 Peak #1], the IC50 in assay [2] (setting [4]) is 64 nM. Also, the EC50 in assay [3] (setting [5]) worked out at 99 nM. In turn, `CC(O)(c1ccc(N2CCN(S(=O)(=O)c3cccs3)C[C@@H]2CN2CCOC[C@H]2CO)cc1)C(F)(F)F` (single isomer, unassigned) [Example 110 Peak #1] had an IC50 in assay [2] (GK-GKRP IC50 (Binding)) of 101 nM. The compound also showed an EC50 in assay [3] (GK-GKRP EC50 (LC MS/MS-2)) of 156 nM.

As to `CC(C)CN(C[C@H]1CN(S(=O)(=O)c2cccs2)CCN1c1ccc(C(C)(O)C(F)(F)F)cc1)S(C)(=O)=O` (mixture of isomers) [Example 201, N-(2-methylpropyl)-N-(((2S)-4-(2-thiophenylsulfonyl)-1-(4-(2,2,2-trifluoro-1-hydroxy-1-methylethyl)phenyl)-2-piperazinyl)methyl)methanesulfonamide], in assay [2] (setting [4]), the IC50 was 4 nM. Also, in assay [3] (setting [5]), the EC50 is 14 nM. For the compound `CC(O)(c1ccc(N2CCN(S(=O)(=O)c3ccc(N)nc3)C[C@@H]2CC2CCOCC2)cc1)C(F)(F)F` (mixture of isomers) [Example 127, 2-(4-((2S)-4-((6-amino-3-pyridinyl)sulfonyl)-2-(tetrahydro-2H-pyran-4-ylmethyl)-1-piperazinyl)phenyl)-1,1,1-trifluoro-2-propanol], the IC50 in assay [2] (setting [4]) was 55 nM. In addition, the EC50 in assay [3] (setting [5]) worked out at 58 nM.

`CC(O)(c1ccc(N2CCN(S(=O)(=O)c3cccs3)CC2CN2C3COCC2C(O)C3)cc1)C(F)(F)F` (single isomer, unassigned) [Example 77 Peak #2]: the IC50 in assay [2] (setting [4]) worked out at 11 nM. Besides, in assay [3] (setting [5]), the EC50 stood at 19 nM. The matching figures for `CC(O)(c1ccc(N2CCN(S(=O)(=O)c3cccs3)C[C@@H]2C[S+]([O-])c2ccc(F)cc2)cc1)C(F)(F)F` (single isomer, unassigned) [Example 191 Peak#2]: 425 nM and 252 nM. In the case of `CC(O)(c1ccc(N2CCN(S(=O)(=O)c3cccs3)C[C@@H]2CN2CCC(=O)CC2)cc1)C(F)(F)F` (mixture of isomers) [Example 144, 1-(((2S)-4-(2-thiophenylsulfonyl)-1-(4-(2,2,2-trifluoro-1-hydroxy-1-methylethyl)phenyl)-2-piperazinyl)methyl)-4-piperidinone], in assay [2] (setting [4]), the IC50 turned out to be 564 nM. Also, the EC50 in assay [3] (setting [5]) came out at 831 nM. The matching figures for `CC(O)(c1ccc(N2CCN(S(=O)(=O)c3ccc(N)s3)C[C@@H]2Cc2ccccc2)cc1)C(F)(F)F` (mixture of isomers) [Example 136, 2-(4-((2S)-4-((5-amino-2-thiophenyl)sulfonyl)-2-benzyl-1-piperazinyl)phenyl)-1,1,1-trifluoro-2-propanol]: 250 nM and 146 nM. The matching figures for `CC(C)CN(C[C@H]1CN(S(=O)(=O)c2ccc(N)nc2)CCN1c1ncc(C(O)(C(F)(F)F)C(F)(F)F)cn1)S(C)(=O)=O` [Example 230 (6-amino-3-pyridinyl), N-(((2S)-4-((6-amino-3-pyridinyl)sulfonyl)-1-(5-(2,2,2-trifluoro-1-hydroxy-1-(trifluoromethyl)ethyl)-2-pyrimidinyl)-2-piperazinyl)methyl)-N-(2-methylpropyl)methanesulfonamide]: 1 nM and 11 nM.

As to `C[C@H]1CN(S(=O)(=O)c2cccs2)CCN1c1ncc(C(O)(C(F)(F)F)C(F)(F)F)cn1` [Example 94, 1,1,1,3,3,3-hexafluoro-2-(2-((2S)-2-methyl-4-(2-thiophenylsulfonyl)-1-piperazinyl)-5-pyrimidinyl)-2-propanol], in assay [2] (setting [4]), the IC50 was determined as 362 nM. The EC50 in assay [3] (setting [5]) was 470 nM. The matching figures for `CS(=O)(=O)NCC#Cc1cc(C(O)(C(F)(F)F)C(F)(F)F)ccc1N1CCN(S(=O)(=O)c2cccs2)CC1` [Example 160, N-(3-(2-(4-(2-thiophenylsulfonyl)-1-piperazinyl)-5-(2,2,2-trifluoro-1-hydroxy-1-(trifluoromethyl)ethyl)phenyl)-2-propyn-1-yl)methanesulfonamide]: 783 nM and 412 nM. As to `CC(O)(c1ccc(N2CCN(S(=O)(=O)c3cccs3)C[C@@H]2CN2[C@@H]3COC[C@H]2CC(=O)C3)cc1)C(F)(F)F` (single isomer, unassigned) [Example 106 Peak#1], the half-inhibitory concentration (IC50) in assay [2] (setting [4]) turned out to be 52 nM. Besides, the EC50 in assay [3] (setting [5]) was found to be 88 nM. The matching figures for `CC(O)(c1ccc(N2CCN(S(=O)(=O)c3cccs3)C[C@@H]2CN2C3COCC2C(O)C3)cc1)C(F)(F)F` (single isomer, unassigned) [Example 78 Peak #3]: 33 nM and 36 nM. The matching figures for `CC(O)(c1ccc(N2CCN(S(=O)(=O)c3cccs3)C[C@@H]2CN2CCS(=O)(=O)CC2C2CC2)cc1)C(F)(F)F` (mixture of isomers) [Example 87, 2-(4-((2S)-2-((3-cyclopropyl-1,1-dioxido-4-thiomorpholinyl)methyl)-4-(2-thiophenylsulfonyl)-1-piperazinyl)phenyl)-1,1,1-trifluoro-2-propanol]: 229 nM and 246 nM.
